# According to patent US8735375B2, “Therapeutic compositions” (Leo Laboratories Limited, priority 2005, dated 2014):
# Legend:
# [1] = Preliminary in vitro diffusion study (Franz cell); assay type: in vitro ADME; details: human stratum corneum, at detectable levels
# Text: Once the stability of I3A in the excipients and penetration enhancers had been established, a preliminary in vitro diffusion experiment could be conducted to determine the permeation of stratum corneum by I3A from some simple formulations. The Franz diffusion cell is designed to mimic the physiological and anatomical conditions of skin in situ. It is an air/fluid phase static cell, which comprises a donor compartment, receptor compartment and a side arm sampling port (see FIG. 1). Surgically excised skin is positioned between the two halves with the stratum corneum facing the donor compartment to allow for drug application.
# An initial in vitro diffusion experiment using a simple formulation of I3A in miglyol was performed. […] This formulation was used in later diffusion cell experiments as a negative control and also served to confirm the integrity of the stratum corneum, as if there is no diffusion of drug from this formulation, it can be assumed that the stratum corneum remains intact.
# A formulation of I3A was prepared in phosphate buffer (pH 4.5) with β-cyclodextrins (Captisol®) added with a view to increasing the solubility and stability of I3A, and the flux of the drug. A second formulation in DMSO, a known penetration enhancer, was also prepared for comparative purposes, as well as a formulation in miglyol, which served as a negative control. […]
# [2] = Stability study of I3A in solvents at 4-8° C.; assay type: physicochemical; details: 14 days
# Experimental: The stability of I3A in various solvents at 4-8° C. was investigated. A stock solution of 1.26 mg of I3A was weighed out and dissolved in 2 ml acetone. This stock solution was used to prepare the stability samples as follows:
# Aliquots of 100 μl of stock solution were transferred to individual glass HPLC vials via a Hamilton syringe, with careful rinsing and drying of the syringe between each sample. The samples were dried down by air jet and then 0.5 ml of the appropriate test solvent system added. The solvent systems were tested in triplicate and are listed below:
# Blank samples were also prepared in triplicate using 100 μl of acetone in place of the stock solution. The blank samples were then dried down and 0.5 ml acetone added to each vial. The vials were all crimped, sealed with Parafilm® and placed at 4-8° C. for the duration of the stability study. HPLC analysis was performed on the samples on Day 0, Day 1, Day 5 and Day 14 of the stability study. The samples were prepared for the HPLC assay as described below:
# The stability samples were removed from 4-8° C. and left at ambient temperature for 30 mins. Aliquots of 100 μl were transferred to fresh glass HPLC vials using a Hamilton syringe, with careful, rinsing and drying of the syringe between each sample. To facilitate drying of the samples, 0.5 ml of acetone was added to each vial and then the samples were dried down by air jet. The samples were reconstituted with 1 ml of acetonitrile and analysed by HPLC using the chromatographic conditions specified above.
# [3] = Stability of I3A 'b' in isopropanol gel (pH 6.5); assay type: physicochemical; details: 0.02% (w/w) I3A 'b' in isopropanol gel pH 6.5; 2-8° C., RTP and 40° C.
# Experimental: The stability of I3A ‘b’ in an isopropanol gel preparation (pH 6.5) was investigated. The protocol was as follows:
# The Carbopol® was dispersed in the water and glycerin and dissolved by heating to 40° C. in a water bath. The propyl alcohol was then added to this solution. The cyclomethicone was dissolved in the isopropyl alcohol and this second solution was mixed well with the Carbopol® solution, and then water was added, with stirring, to 100%. The pH of the gel was brought to 6.5 with the dropwise addition of ethanolamine. The isopropanol gel was stored at 2-8° C. until use.
# To investigate the stability of I3A ‘b’ in isopropanol gel (pH 6.5), a 0.02% (w/w) I3A ‘b’/Visopropanol gel formulation was prepared and divided into three samples for storage at 2-8° C., RTP and 40° C. At regular time points the samples were analysed in duplicate for the stability of I3A ‘b’ in terms of the formation of isoform ‘a’, with the results given in FIG. 2.
# [4] = Preliminary stability of I3A in receiver fluid 20% v/v ethanol/citrate buffer (pH 3.0); assay type: physicochemical; details: 37° C., after 18 h
# Experimental: The receiver fluid employed to try and maintain sink conditions was 20% v/v ethanol/citrate buffer (pH 3.0) and this was incorporated into the Franz cell and stirred constantly with a magnetic stirrer. Preliminary stability studies were conducted on I3A in 20% v/v ethanol/citrate buffer (pH 3.0) at 37° C. over ca. 18 h. […] For the purpose of the Franz cell study this was considered acceptable.
# [5] = Dilution of I3A with normal saline (isoform conversion); assay type: physicochemical
# Text: Oils may also be used in the present invention. The use of an emulsion based intralesional formulation has been reported for the treatment of psoriasis (Ho et al., 1990). Prior to administration, a vehicle, such as polyoxyethylated castor oil, is normally diluted with saline to form the emulsion. […] This conversion may be minimised if the administration time of the formulation is short.
compound,measurement,setting,value
"C/C=C(/C)C(=O)O[C@H]1C(C)=C[C@]23C(=O)[C@H](C=C(CO)[C@@H](O)[C@]12O)[C@H]1[C@@H](C[C@H]3C)C1(C)C [Formulation I3A, ingenol-3-angelate]",diffusion of I3A across the stratum corneum,[1],diffuses across the stratum corneum
same,stability (predominance of peak 'b'),[2]; 100% v/v acetone,stable
same,stability (predominance of peak 'b'),[2]; 100% v/v acetonitrile,stable
same,isomer formation,"[2]; protic solvents (methanol, methanol/water, water)",formation of isomer ‘a’ and then isomer ‘c’ increases rapidly
same,stability in terms of the formation of isoform 'a',[3],rearranges to isoform ‘a’ and subsequently isoform ‘c’
same,percentage peak area increase in isoform ‘a’,[4],0.26%
same,conversion of isoform 'b' to 'a',[5],increases the conversion of isoform ‘b’ to ‘a’
